Measured values published in patent publication US12441726B2, “Compounds and uses thereof” (Foghorn Therapeutics Inc., priority 2020, dated 2025).

Tests used:
BRG-1 = BRG-1 (Homo sapiens, UniProt P51532); assay: ATPase catalytic activity assay (ADP-Glo), BRG-1; details: for Emax: 1 h, read-out: BRG1 Max % Inhibition, ADP-Glo, 30 nM BRG-1, 400 μM ATP
Procedure: The ATPase catalytic activity of BRM or BRG-1 was measured by an in vitro biochemical assay using ADP-Glo™ (Promega, V9102). The ADP-Glo™ kinase assay is performed in two steps once the reaction is complete. The first step is to deplete any unconsumed ATP in the reaction. The second step is to convert the reaction product ADP to ATP, which will be utilized by the luciferase to generate luminesce and be detected by a luminescence reader, such as Envision.
Then following addition of 5 μL of ADP-Glo™ Reagent provided in the kit, the reaction incubates at room temperature for 40 minutes. Then 10 μL of Kinase Detection Reagent provided in the kit is added to convert ADP to ATP, and the reaction incubates at room temperature for 60 minutes. Finally, luminescence measurement is collected with a plate-reading luminometer, such as Envision.

BRM = BRM (Homo sapiens, UniProt P51531); assay: ATPase catalytic activity assay (ADP-Glo), BRM; details: 30 nM BRM, 400 μM ATP; for IC50: BRM ATPase: IC50 (uM)
Chain of BRM (P51531 whole entry): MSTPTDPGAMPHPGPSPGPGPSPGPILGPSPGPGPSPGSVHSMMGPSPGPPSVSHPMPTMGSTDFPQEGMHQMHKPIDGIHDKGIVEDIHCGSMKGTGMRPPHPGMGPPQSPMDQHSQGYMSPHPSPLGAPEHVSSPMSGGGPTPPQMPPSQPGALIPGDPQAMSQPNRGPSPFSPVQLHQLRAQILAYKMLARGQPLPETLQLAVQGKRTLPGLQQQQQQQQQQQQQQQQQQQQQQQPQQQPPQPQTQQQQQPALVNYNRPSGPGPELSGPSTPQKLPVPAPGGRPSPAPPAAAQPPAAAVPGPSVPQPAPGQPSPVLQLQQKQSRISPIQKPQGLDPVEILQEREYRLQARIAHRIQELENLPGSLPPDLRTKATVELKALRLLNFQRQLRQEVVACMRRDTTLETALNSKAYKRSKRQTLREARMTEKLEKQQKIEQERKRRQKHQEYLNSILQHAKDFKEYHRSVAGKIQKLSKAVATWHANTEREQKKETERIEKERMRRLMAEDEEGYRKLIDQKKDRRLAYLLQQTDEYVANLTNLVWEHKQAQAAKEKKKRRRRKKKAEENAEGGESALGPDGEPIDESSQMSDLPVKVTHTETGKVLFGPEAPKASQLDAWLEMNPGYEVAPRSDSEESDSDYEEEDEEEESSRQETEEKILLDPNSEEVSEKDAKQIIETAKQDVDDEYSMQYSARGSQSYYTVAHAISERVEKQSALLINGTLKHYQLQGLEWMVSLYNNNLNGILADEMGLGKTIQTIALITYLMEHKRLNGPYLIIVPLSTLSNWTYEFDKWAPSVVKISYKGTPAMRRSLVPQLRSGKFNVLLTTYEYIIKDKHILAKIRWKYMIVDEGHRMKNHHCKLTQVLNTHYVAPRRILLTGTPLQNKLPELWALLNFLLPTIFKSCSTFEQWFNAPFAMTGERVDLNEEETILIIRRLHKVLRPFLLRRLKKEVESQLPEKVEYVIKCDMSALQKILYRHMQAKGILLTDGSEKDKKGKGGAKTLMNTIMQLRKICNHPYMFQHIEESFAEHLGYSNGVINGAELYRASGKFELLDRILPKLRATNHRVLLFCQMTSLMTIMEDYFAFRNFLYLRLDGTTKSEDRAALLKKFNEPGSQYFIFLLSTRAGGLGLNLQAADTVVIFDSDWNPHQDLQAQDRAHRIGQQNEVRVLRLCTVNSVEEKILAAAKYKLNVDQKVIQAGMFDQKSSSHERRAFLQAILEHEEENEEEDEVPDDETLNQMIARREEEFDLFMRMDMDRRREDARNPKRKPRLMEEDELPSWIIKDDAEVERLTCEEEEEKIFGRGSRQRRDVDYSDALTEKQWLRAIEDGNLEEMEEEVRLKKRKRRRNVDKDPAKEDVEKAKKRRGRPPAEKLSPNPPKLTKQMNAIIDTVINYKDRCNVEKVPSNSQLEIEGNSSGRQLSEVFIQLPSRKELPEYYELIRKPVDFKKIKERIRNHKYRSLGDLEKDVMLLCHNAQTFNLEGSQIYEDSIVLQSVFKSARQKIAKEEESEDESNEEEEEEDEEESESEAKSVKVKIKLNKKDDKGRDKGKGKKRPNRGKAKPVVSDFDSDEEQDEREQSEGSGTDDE

Chain of BRG-1 (P51532 whole entry): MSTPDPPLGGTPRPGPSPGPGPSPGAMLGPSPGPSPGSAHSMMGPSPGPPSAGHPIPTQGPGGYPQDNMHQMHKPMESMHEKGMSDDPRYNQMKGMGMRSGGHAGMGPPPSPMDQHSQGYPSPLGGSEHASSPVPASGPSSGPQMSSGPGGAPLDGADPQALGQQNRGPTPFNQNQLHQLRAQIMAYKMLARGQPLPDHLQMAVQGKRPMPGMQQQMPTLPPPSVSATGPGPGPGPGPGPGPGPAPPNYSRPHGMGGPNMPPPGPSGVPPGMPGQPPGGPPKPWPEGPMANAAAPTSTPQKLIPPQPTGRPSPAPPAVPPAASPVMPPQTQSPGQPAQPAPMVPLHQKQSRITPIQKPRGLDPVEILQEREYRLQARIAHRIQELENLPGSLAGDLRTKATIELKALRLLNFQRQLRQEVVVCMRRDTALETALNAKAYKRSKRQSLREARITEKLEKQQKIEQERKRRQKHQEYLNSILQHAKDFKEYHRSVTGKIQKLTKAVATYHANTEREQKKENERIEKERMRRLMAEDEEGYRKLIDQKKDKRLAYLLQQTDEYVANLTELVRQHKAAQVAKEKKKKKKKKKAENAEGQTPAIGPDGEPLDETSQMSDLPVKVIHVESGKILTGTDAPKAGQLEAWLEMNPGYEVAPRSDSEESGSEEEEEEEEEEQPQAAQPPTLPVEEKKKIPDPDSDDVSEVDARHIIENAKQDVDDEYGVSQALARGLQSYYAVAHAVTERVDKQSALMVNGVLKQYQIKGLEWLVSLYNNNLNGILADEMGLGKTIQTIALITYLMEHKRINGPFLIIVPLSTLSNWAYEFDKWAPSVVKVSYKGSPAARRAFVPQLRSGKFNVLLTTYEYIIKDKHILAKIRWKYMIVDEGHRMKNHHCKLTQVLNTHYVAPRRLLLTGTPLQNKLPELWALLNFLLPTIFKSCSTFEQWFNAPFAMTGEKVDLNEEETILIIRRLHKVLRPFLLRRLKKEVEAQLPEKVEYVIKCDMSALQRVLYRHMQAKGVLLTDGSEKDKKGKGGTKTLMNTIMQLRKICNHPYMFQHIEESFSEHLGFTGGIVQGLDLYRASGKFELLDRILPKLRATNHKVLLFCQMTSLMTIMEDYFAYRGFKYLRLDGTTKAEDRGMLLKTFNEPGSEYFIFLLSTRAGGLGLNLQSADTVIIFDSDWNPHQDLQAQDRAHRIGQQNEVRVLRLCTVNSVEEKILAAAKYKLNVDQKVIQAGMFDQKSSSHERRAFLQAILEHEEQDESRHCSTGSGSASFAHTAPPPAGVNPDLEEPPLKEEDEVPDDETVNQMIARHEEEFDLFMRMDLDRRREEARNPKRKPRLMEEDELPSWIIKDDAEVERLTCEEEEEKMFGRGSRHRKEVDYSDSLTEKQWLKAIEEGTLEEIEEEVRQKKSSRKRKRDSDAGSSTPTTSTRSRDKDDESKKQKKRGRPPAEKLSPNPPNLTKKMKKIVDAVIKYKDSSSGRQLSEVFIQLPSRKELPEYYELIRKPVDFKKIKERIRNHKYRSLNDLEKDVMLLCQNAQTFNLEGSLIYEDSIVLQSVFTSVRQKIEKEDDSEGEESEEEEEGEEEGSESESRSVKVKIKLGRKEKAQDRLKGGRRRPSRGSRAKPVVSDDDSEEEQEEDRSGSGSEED

| SMILES | IC50 (BRG-1) | Emax (BRG-1) | BRM Max % Inhibition (BRM) | IC50 (BRM) |
| --- | --- | --- | --- | --- |
| C[C@@]1(C#N)COCc2ccc(C(=O)NCc3cc(N4CC5(CCN(c6ccccc6)C5)C4)ccn3)cc21 [Compound 12] | > 1000 nM | 22% | 79% | > 1 µM |
| COc1ncccc1-c1nc2cc(CNC(=O)c3ccc4c(c3)[C@](C)(C#N)COC4)ncc2s1 [Compound 354] | > 1000 nM | 39% | 79% | 0.1 to 0.5 µM |
| C[C@@]1(C#N)COCc2ccc(C(=O)NCc3cc(N4CC(c5ccccc5)C4)ccn3)cc21 [Compound 32] | > 1000 nM | 55% | 89% | > 1 µM |
| C[C@@]1(C#N)COCc2ccc(C(=O)NCc3cc(N4CCc5ccccc5CC4)ccn3)cc21 [Compound 50] | > 1000 nM | 53% | 90% | 0.1 to 0.5 µM |
| C[C@@]1(O)COCc2ccc(C(=O)NCc3cc4nc(-c5ccccc5)ccc4cn3)cc21 [Compound 89] | > 1000 nM | 15% | 76% | > 1 µM |
| C[C@@]1(C#N)COCc2ccc(C(=O)NCc3cc(C4CN(c5ccccc5)C4)ccn3)cc21 [Compound 30] | > 1000 nM | 35% | 92% | 0.1 to 0.5 µM |
| C[C@@]1(F)COCc2ccc(C(=O)NCc3cc4cc(-c5ccnn(C6CC6)c5=O)ccc4cn3)cc21 [Compound 257] | 500 to 1000 nM | 65% | 92% | 0.1 to 0.5 µM |
| C[C@]1(C#N)CCOc2ncc(C(=O)NCc3cc4nc(-c5cncc(C6CC6)n5)ccc4cn3)cc21 [Compound 253] | 500 to 1000 nM | 57% | 92% | 0.1 to 0.5 µM |
| C[C@@]1(C#N)COCc2ccc(C(=O)NCc3cc([C@@H]4C[C@H]4c4ccccc4)ccn3)cc21 [Compound 8] | > 1000 nM | 9% | 73% | > 1 µM |
| CN(C)C(=O)c1cccc(C#Cc2ccnc(CNC(=O)c3ccc4c(c3)[C@](C)(C#N)COC4)c2)c1 [Compound 84] | 500 to 1000 nM | 53% | 89% | 0.1 to 0.5 µM |
| C[C@@]1(C#N)COCc2ccc(C(=O)NCc3cc(OCc4ccccc4)ccn3)cc21 [Compound 6] | > 1000 nM | 44% | 95% | 0.1 to 0.5 µM |
| C[C@@]1(C#N)COCc2ccc(C(=O)NCc3cc(OCc4cccc(N5CCC5)n4)ccn3)cc21 [Compound 34] | > 1000 nM | 53% | 94% | 0.1 to 0.5 µM |
| C[C@@]1(C#N)COCc2ccc(C(=O)NCc3cc4nc(N5CCCCC5)ccc4cn3)cc21 [Compound 103] | > 1000 nM | 71% | 94% | 0.1 to 0.5 µM |
| C[C@@]1(C#N)COCc2ccc(C(=O)NCc3cc4nc(-c5cc6ccccn6n5)ccc4cn3)cc21 [Compound 164] | 500 to 1000 nM | 68% | 92% | 0.1 to 0.5 µM |
| COc1nn(C2COC2)cc1-c1ccc2cnc(CNC(=O)c3ccc4c(c3)[C@](C)(F)COC4)cc2n1 [Compound 201] | 500 to 1000 nM | 76% | 99% | < 0.1 µM |
| C[C@@]1(C#N)COCc2ccc(C(=O)NCc3cc4cc(N5CCn6ncc(C(F)F)c6C5)cnc4cn3)cc21 [Compound 220] | > 1000 nM | 47% | 92% | 0.1 to 0.5 µM |
| C[C@@]1(C#N)COCc2ccc(C(=O)NCc3cc4nc(-c5cncc(N6CCC6)c5)ccc4cn3)cc21 [Compound 441] | 500 to 1000 nM | 80% | 97% | 0.1 to 0.5 µM |
| C[C@@]1(C#N)COCc2ccc(C(=O)NCc3cc4nc(C5CCOCC5)ccc4cn3)cc21 [Compound 107] | > 1000 nM | 16% | 71% | > 1 µM |
| C[C@@]1(C#N)COCc2ccc(C(=O)NCc3cc4nc(-c5ccc(C(F)F)nc5)ccc4cn3)cc21 [Compound 478] | 500 to 1000 nM | 63% | 95% | 0.1 to 0.5 µM |
| Cn1cc2c(n1)CCN(c1ccc3cnc(CNC(=O)c4ccc5c(c4)[C@](C)(C#N)COC5)cc3n1)C2 [Compound 455] | 500 to 1000 nM | 75% | 94% | 0.1 to 0.5 µM |
| C[C@@]1(C#N)COCc2ccc(C(=O)NCc3cc(C4CCN(c5cccc(C(F)F)n5)C4)ccn3)cc21 (stereo partly shown) [Compound 69] | 500 to 1000 nM | 50% | 90% | 0.1 to 0.5 µM |
| C[C@@]1(F)COCc2ccc(C(=O)NCc3cc4nc(-c5ccc(=O)n(C6CC6)n5)ccc4cn3)cc21 [Compound 233] | 500 to 1000 nM | 74% | 98% | 0.1 to 0.5 µM |
| C[C@@]1(C#N)COCc2ccc(C(=O)NCc3cc4cc(-c5ccccc5)ccc4cn3)cc21 [Compound 123] | > 1000 nM | 74% | 96% | 0.1 to 0.5 µM |
| Cn1cc(-c2ccc3cnc(CNC(=O)c4ccc5c(c4)[C@](C)(C#N)COC5)cc3n2)c(F)n1 [Compound 364] | 500 to 1000 nM | 62% | 90% | 0.1 to 0.5 µM |
| C[C@@]1(C#N)COCc2ccc(C(=O)NCc3cc4nc(-c5cccc(C6(O)COC6)c5)ccc4cn3)cc21 [Compound 479] | 500 to 1000 nM | 72% | 96% | 0.1 to 0.5 µM |
| C[C@@]1(C#N)COCc2ccc(C(=O)NCc3cc4nc(-c5cccc(C#N)c5)ccc4cn3)cc21 [Compound 112] | > 1000 nM | 55% | 94% | 0.1 to 0.5 µM |
| C[C@@]1(C#N)COCc2ccc(C(=O)NCc3cc4cc(-c5nccc(N6CCC6)n5)cnc4cn3)cc21 [Compound 372] | > 1000 nM | 47% | 93% | 0.1 to 0.5 µM |
| C[C@@]1(C#N)COCc2ccc(C(=O)NCc3cc4cc(-c5ccccc5)ncc4cn3)cc21 [Compound 508] | > 1000 nM | 46% | 90% | 0.1 to 0.5 µM |

Other lines, results leading:

| IC50 (BRG-1) | Emax (BRG-1) | BRM Max % Inhibition (BRM) | IC50 (BRM) | SMILES |
| --- | --- | --- | --- | --- |
| 100 to 500 nM | 95% | 97% | < 0.1 µM | C[C@@]1(C#N)COCc2ccc(C(=O)NCc3cc4cc(-c5cncc(N6CCC6)n5)ccc4nn3)cc21 [Compound 356] |
| 500 to 1000 nM | 61.2% | 90.7% | 0.1 to 0.5 µM | C[C@@H]1CN(c2cccc(-c3ccc4[nH]c(CNC(=O)c5ccc6c(c5)[C@](C)(CO)CC6)nc4c3)c2)C[C@H](C)O1 [Compound 526] |
| 500 to 1000 nM | 51% | 94% | 0.1 to 0.5 µM | C[C@@]1(C#N)COCc2ccc(C(=O)NCc3cc4nc(-c5ccccc5)sc4nn3)cc21 [Compound 242] |
| 100 to 500 nM | 92% | 99% | < 0.1 µM | C[C@@]1(C#N)COCc2ccc(C(=O)NCc3cc4cc(-c5ccnc(N6CCC6)n5)ccc4nn3)cc21 [Compound 336] |
| 500 to 1000 nM | 82% | 93% | 0.1 to 0.5 µM | CN1Cc2ccc(-c3ccc4cnc(CNC(=O)c5ccc6c(c5)[C@](C)(C#N)COC6)cc4n3)cc2C1=O [Compound 485] |
| 500 to 1000 nM | 75% | 93% | 0.1 to 0.5 µM | C[C@@]1(C#N)COCc2ccc(C(=O)NCc3cc(N4CCC(F)(c5ccccc5)C4)ccn3)cc21 (stereo partly shown) [Compound 60] |
| 100 to 500 nM | 94% | 99% | < 0.1 µM | C[C@@]1(C#N)COCc2ccc(C(=O)NCc3cc4nc(-c5ccnc(N6CC[C@@H](F)C6)n5)ccc4cn3)cc21 [Compound 306] |
| < 100 nM | 100% | 101% | < 0.1 µM | CN(C)c1cccc(-c2ccc3cnc(CNC(=O)c4cnc5c(c4)[C@](F)(C(F)F)COC5)cc3n2)n1 [Compound 224] |
| 100 to 500 nM | 77% | 97% | < 0.1 µM | COc1cnccc1-c1ccc2cnc(CNC(=O)c3ccc4c(c3)[C@](C)(C#N)COC4)cc2n1 [Compound 507] |
| 100 to 500 nM | 93% | 101% | < 0.1 µM | COCC1CN(c2cncc(-c3ccc4cnc(CNC(=O)c5ccc6c(c5)[C@](C)(C#N)COC6)cc4n3)n2)C1 [Compound 394] |
| 100 to 500 nM | 95% | 101% | < 0.1 µM | C[C@@]1(C#N)COCc2ccc(C(=O)NCc3cc4nc(-c5cn(C6COC6)nc5OC(F)F)ccc4cn3)cc21 [Compound 154] |
| 100 to 500 nM | 92% | 98% | < 0.1 µM | Cn1ccc2c(-c3ccc4cnc(CNC(=O)c5ccc6c(c5)[C@](C)(C#N)COC6)cc4n3)cc(F)cc21 [Compound 171] |
| 100 to 500 nM | 96% | 99% | < 0.1 µM | COc1cc(C(F)F)ccc1-c1ccc2cnc(CNC(=O)c3ccc4c(c3)[C@](C)(C#N)COC4)cc2n1 [Compound 157] |
| 100 to 500 nM | 88% | 103% | < 0.1 µM | CN1CCN(c2nccc(-c3ccc4cnc(CNC(=O)c5ccc6c(c5)[C@](C)(F)COC6)cc4n3)n2)CC1=O [Compound 267] |
| 100 to 500 nM | 94% | 98% | < 0.1 µM | C[C@@H]1COCCN1c1nccc(-c2ccc3cnc(CNC(=O)c4ccc5c(c4)[C@](C)(C#N)COC5)cc3n2)n1 [Compound 363] |
